Patent US11000510B2, “Methods of using anti-CD79b immunoconjugates” (Genentech, Inc., priority 2014, dated 2021)

Legend:
[1] = test system: activated B-cell-like (ABC) subtype; settings: Br J Haematol 2013 Zhang et al.; cited from earlier work
non-ABC-DLBCL cells = settings: Br J Haematol 2013 Zhang et al.; cited from earlier work
TMD8 (ABC-DLBCL) = experiment: Combination efficacy in tumor xenograft model of TMD8 (Example 5); settings: ADC 2 mg/kg iv once; GA101 1 mg/kg ip qwx3; lenalidomide 20 mg/kg po (qdx5)x3
Procedure: When the xenograft tumors reached desired volume, animals were randomized and received treatments (Day 0 of the study). There were seven treatment groups (1) vehicle, (2) GA101, (3) anti-CD79b-MC-vc-PAB-MMAE, (4) lenalidomide, (5) GA101+anti-CD79b-MC-vc-PAB-MMAE, (6) GA101+lenalidomide, and (7) GA101+lenalidomide+anti-CD79b-MC-vc-PAB-MMAE. CD79b-MC-vc-PAB-MMAE ADC was dosed once intravenously at 2 mg/kg, iv, once. GA101 dosed 1 mg/kg, ip, qwx3. Lenalidomide was administered at 20 mg/kg, po, (qdx5)×3.
As described above, tumors were measured 1-2 times a week throughout the study using UltraCal-IV calipers and tumor volume was calculated using following formula: tumor volume (mm^3)=0.5a×b^2, wherein a and b are the long and short diameters of the tumor, respectively.

[2] = test system: Granta-519 human mantle-cell lymphoma; experiment: Combination efficacy in tumor xenograft model of Granta-519 (Example 3); format: in vivo; settings: ADC 1 mg/kg iv once; ABT-199 100 mg/kg orally once a day for 21 days
Source text: To appropriately analyze the repeated measurement of tumor volumes from the same animals over time, a mixed modeling approach was used (Pinheiro J, et al. nlme: linear and nonlinear mixed effects models. 2009; R package, version 3.1-96). This approach addresses both repeated measurements and modest dropout rates due to non-treatment related removal of animals before the study end. Cubic regression splines were used to fit a non-linear profile to the time courses of log2 tumor volume at each dose level. These non-linear profiles were then related to dose within the mixed model. The results were plotted as fitted tumor volume of each group over time.

WSU-DLCL2 (DLBCL) = experiment: Combination efficacy in tumor xenograft model of WSU-DLCL2 (Example 6); format: in vivo, C.B-17 SCID mice; settings: ADC 2 mg/kg iv once; GA101 30 mg/kg ip once; GDC-199 100 mg/kg po qdx21; GDC-032 10 mg/kg po qdx21; rituximab 30 mg/kg ip once
Procedure: GA101 dosed 30 mg/kg, ip, once. Bcl2 inhibitor, GDC-199, was dosed at 100 mg/kg, po, qdx21. PI3K inhibitor, GDC-032 was dosed at 10 mg/kg, po, qdx21.

| Compound | growth suppression of ABC subtype [1] | effect on non-ABC-DLBCL cells (non-ABC-DLBCL cells) | anti-tumor efficacy (tumor volume, FIG. 3B) (TMD8 (ABC-DLBCL)) | anti-tumor activity (fitted tumor volume over time, FIG. 2) [2] | effect on tumor growth (tumor volume, FIG. 4) (WSU-DLCL2 (DLBCL)) |
| --- | --- | --- | --- | --- | --- |
| Nc1cccc2c1CN(C1CCC(=O)NC1=O)C2=O (racemic) [lenalidomide, (RS)-3-(4-Amino-1-oxo 1,3-dihydro-2H-isoindol-2-yl)piperidine-2,6-dione] | preferentially suppresses the growth | minimal effect | little efficacy | – | – |
| CC1(C)CCC(CN2CCN(c3ccc(C(=O)NS(=O)(=O)c4ccc(NCC5CCOCC5)c([N+](=O)[O-])c4)c(Oc4cnc5[nH]ccc5c4)c3)CC2)=C(c2ccc(Cl)cc2)C1 [ABT-199, 4-(4-{[2-(4-chlorophenyl)-4,4-dimethylcyclohex-1-en-1-yl]methyl}piperazin-1-yl)-N-({3-nitro-4-[(tetrahydro-2H-pyran-4-ylmethyl)amino]phenyl}sulfonyl)-2-(1H-pyrrolo[2,3-b]pyridin-5-yloxy)benzamide] | – | – | – | did not result in anti-tumor activity | little effect on the tumor growth |
| Cc1nc(-c2cn3c(n2)-c2ccc(-c4cnn(C(C)(C)C(N)=O)c4)cc2OCC3)n(C(C)C)n1 [GDC-0032] | – | – | – | – | little effect on the tumor growth |
| GA101: anti-CD20 antibody; obinutuzumab is synonymous for GA101 or RO5072759; humanized B-Ly1 type II antibody | – | – | – | – | little effect on the tumor growth |
